Results reported in patent publication US8575321B2, “Benzylbenzene derivatives and methods of use” (Theracos, Inc., priority 2007, dated 2013).

How the values were obtained:
human SGLT1 = molecular target: T1, human SGLT1 (Homo sapiens, UniProt P13866); test: Methyl-α-D-[U-14C]glucopyranoside uptake assay in COS-7 cells expressing human SGLT1; assay type: cell-based; settings: 2 h incubation
T1 construct: Full-length human SGLT1 cDNA on pDream2.1 expression vector; host or cells: COS-7 cells (American Type Culture Collection)
T1 sequence (P13866 1-664): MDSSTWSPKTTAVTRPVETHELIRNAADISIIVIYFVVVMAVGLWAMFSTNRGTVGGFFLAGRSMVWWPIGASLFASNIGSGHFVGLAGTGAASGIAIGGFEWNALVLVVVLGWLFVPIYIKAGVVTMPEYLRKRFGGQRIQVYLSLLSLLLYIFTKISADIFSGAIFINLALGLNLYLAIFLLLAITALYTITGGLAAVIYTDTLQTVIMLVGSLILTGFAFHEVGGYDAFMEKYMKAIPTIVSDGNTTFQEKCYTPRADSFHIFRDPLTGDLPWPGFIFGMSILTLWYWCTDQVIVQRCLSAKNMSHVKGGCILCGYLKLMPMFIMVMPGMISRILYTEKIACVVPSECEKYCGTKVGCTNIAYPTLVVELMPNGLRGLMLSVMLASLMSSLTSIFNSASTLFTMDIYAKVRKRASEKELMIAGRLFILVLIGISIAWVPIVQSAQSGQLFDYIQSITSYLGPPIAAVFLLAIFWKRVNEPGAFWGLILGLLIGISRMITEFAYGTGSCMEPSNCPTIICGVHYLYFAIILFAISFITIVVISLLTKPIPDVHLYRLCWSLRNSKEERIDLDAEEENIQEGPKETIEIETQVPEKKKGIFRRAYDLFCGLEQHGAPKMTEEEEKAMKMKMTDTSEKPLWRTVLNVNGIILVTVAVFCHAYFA
Description: Full-length human SGLT1 cDNA on pDream2.1 expression vector was obtained from GenScript Corporation and propagated in Escherichia coli strain DH5α using Luria-Bertani (LB) medium containing ampicillin. Plasmid DNA was isolated using the QIAGEN Plasmid Midi Kit (QIAGEN Inc.). […] Transfected cells were stored in DMEM containing 10% dimethyl sulfoxide (DMSO) at −80° C.
(§1) Cells expressing SGLT1 or SGLT2 were seeded on 96-well ScintiPlate scintillating plates (PerkinElmer, Inc.) in DMEM containing 10% FBS (1×10^5 cells per well in 100 μl medium) incubated at 37° C. under 5% CO2 for 48 h prior to the assay. Cells were washed twice with 150 μl of either sodium buffer (137 mM NaCl, 5.4 mM KCl, 2.8 mM CaCl2, 1.2 mM MgCl2, 10 mM tris(hydroxymethyl)aminomethane/N^2-hydroxyethylpiperazine-N′-ethanesulfonic acid [Tris/Hepes], pH 7.2) or sodium-free buffer (137 mM N-methyl-glucamine, 5.4 mM KCl, 2.8 mM CaCl2, 1.2 mM MgCl2, 10 mM Tris/Hepes, pH 7.2). Test compound in 50 μl each of sodium or sodium-free buffer containing 40 μCi/ml methyl-α-D-[U-^14C]glucopyranoside (Amersham Biosciences/GE Healthcare), either with (symbols in parentheses) or without (symbols without parentheses) 25% human serum, was added per well of a 96-well plate and incubated at 37° C. with shaking for either 2 h (SGLT1 assay) or 1.5 h (SGLT2 assay). Cells were washed twice with 150 μl of wash buffer (137 mM N-methylglucamine, 10 mM Tris/Hepes, pH 7.2) and methyl-α-D-[U-^14C]glucopyranoside uptake was quantitated using a TopCount scintillation counter (PerkinElmer, Inc.). Sodium-dependent glucopyranoside uptake was measured by subtracting the values obtained with sodium-free buffer from those obtained using sodium buffer (average of triplicate determinations).

human SGLT2 = molecular target: T2, human SGLT2 (Homo sapiens, UniProt P31639); test: Methyl-α-D-[U-14C]glucopyranoside uptake assay in HEK293.ETN cells stably expressing human SGLT2; assay type: cell-based; settings: 1.5 h incubation
T2 construct: A full-length cDNA clone expressing human SGLT2
T2 sequence (P31639 1-672): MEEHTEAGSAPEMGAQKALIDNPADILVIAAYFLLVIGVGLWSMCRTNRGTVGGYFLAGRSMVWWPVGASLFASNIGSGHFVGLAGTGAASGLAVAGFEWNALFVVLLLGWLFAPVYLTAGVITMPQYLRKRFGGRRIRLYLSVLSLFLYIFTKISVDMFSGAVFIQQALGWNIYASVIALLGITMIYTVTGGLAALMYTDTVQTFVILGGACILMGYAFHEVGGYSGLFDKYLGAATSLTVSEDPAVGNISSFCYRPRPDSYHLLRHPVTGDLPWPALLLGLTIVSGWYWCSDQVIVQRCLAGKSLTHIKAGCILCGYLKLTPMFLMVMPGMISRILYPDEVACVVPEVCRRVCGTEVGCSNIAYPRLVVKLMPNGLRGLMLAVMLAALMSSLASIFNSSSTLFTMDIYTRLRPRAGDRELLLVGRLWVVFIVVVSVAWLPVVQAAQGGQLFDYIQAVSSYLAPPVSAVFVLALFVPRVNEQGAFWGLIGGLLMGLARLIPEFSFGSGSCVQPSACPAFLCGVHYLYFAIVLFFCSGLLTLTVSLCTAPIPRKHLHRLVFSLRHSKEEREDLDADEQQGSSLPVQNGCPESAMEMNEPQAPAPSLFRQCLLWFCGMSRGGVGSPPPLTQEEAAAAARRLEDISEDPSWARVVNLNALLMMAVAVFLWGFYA
Text: A full-length cDNA clone expressing human SGLT2 (GenScript Corporation) was subcloned into Hind III and Not I sites of pEAK15 expression vector. Clones harboring the cDNA inserts were identified by restriction analysis.
Plasmid containing human SGLT2 was linearized with Nsi I and purified by agarose gel electrophoresis. Using Lipofectamine 2000 Transfection Reagent (Invitrogen Corporation), DNA was transfected into HEK293.ETN cells and cultured in Dulbecco's Modified Eagle Medium (DMEM) containing 10% fetal bovine serum (FBS) at 37° C. under 5% CO2 for 24 h. Transfectants were selected in the same growth medium supplemented with puromycin (Invitrogen Corporation) for two weeks. Puromycin-resistant cells were recovered and seeded on a fresh 96-well plate (single cell per well) and cultured in the presence of puromycin until cells became confluent. Puromycin-resistant clones were evaluated for SGLT2 activity in the methyl-α-D-[U-^14C]glucopyranoside uptake assay described below.
as §1

[1] = incubation with 25% human serum (symbols in parentheses)
[2] = without human serum (symbols without parentheses)

Row | Structure (SMILES) | IC50 (human SGLT1; [1]) | IC50 (human SGLT2; [1]) | IC50 (human SGLT1; [2]) | IC50 (human SGLT2; [2])
1 | OC[C@H]1O[C@@H](c2ccc(Cl)c(Cc3ccc(CCCOC4CC4)cc3)c2)[C@H](O)[C@@H](O)[C@@H]1O [Compound DJ, (2S,3R,4R,5S,6R)-2-(4-chloro-3-(4-(3-cyclopropoxypropyl)benzyl)phenyl)-6-(hydroxymethyl)tetrahydro-2H-pyran-3,4,5-triol] | 1 to 10 µM | < 1 µM |  | 
2 | C#CCOCC(C)Oc1ccc(Cc2cc([C@@H]3O[C@H](CO)[C@@H](O)[C@H](O)[C@H]3O)ccc2Cl)cc1 (stereo partly drawn) [Compound T, (2S,3R,4R,5S,6R)-2-(4-chloro-3-(4-(1-(prop-2-ynyloxy)propan-2-yloxy)benzyl)phenyl)-6-(hydroxymethyl)tetrahydro-2H-pyran-3,4,5-triol] | > 10 µM | < 1 µM |  | 
3 | COCC#CCOc1ccc(Cc2cc([C@@H]3O[C@H](CO)[C@@H](O)[C@H](O)[C@H]3O)ccc2Cl)cc1 [Compound Z, (2S,3R,4R,5S,6R)-2-(4-chloro-3-(4-(4-methoxybut-2-ynyloxy)benzyl)phenyl)-6-(hydroxymethyl)tetrahydro-2H-pyran-3,4,5-triol] | > 10 µM | < 1 µM |  | 

Now from value to compound:

Row | IC50 (human SGLT1; [1]) | IC50 (human SGLT2; [1]) | IC50 (human SGLT1; [2]) | IC50 (human SGLT2; [2]) | Structure (SMILES)
4 |  |  | 1 to 10 µM | < 1 µM | COCCOCCOc1ccc(Cc2cc([C@@H]3O[C@H](CO)[C@@H](O)[C@H](O)[C@H]3O)ccc2Cl)cc1 [Compound M, (2S,3R,4R,5S,6R)-2-(4-chloro-3-(4-(2-(2-methoxyethoxy)ethoxy)benzyl)phenyl)-6-(hydroxymethyl)tetrahydro-2H-pyran-3,4,5-triol]
5 | 1 to 10 µM | < 1 µM |  |  | C=CCOCCOc1ccc(Cc2cc([C@@H]3O[C@H](CO)[C@@H](O)[C@H](O)[C@H]3O)ccc2Cl)cc1 [Compound P, (2S,3R,4R,5S,6R)-2-(3-(4-(2-(allyloxy)ethoxy)benzyl)-4-chlorophenyl)-6-(hydroxymethyl)tetrahydro-2H-pyran-3,4,5-triol]
6 | 1 to 10 µM | < 1 µM |  |  | C#CCOCCOc1ccc(Cc2cc([C@@H]3O[C@H](CO)[C@@H](O)[C@H](O)[C@H]3O)ccc2Cl)cc1 [Compound R, (2S,3R,4R,5S,6R)-2-(4-chloro-3-(4-(2-(prop-2-ynyloxy)ethoxy)benzyl)phenyl)-6-(hydroxymethyl)tetrahydro-2H-pyran-3,4,5-triol]
7 | 1 to 10 µM | < 1 µM |  |  | OCC#CCOc1ccc(Cc2cc([C@@H]3O[C@H](CO)[C@@H](O)[C@H](O)[C@H]3O)ccc2Cl)cc1 [Compound X, (2S,3R,4R,5S,6R)-2-(4-chloro-3-(4-(4-hydroxybut-2-ynyloxy)benzyl)phenyl)-6-(hydroxymethyl)tetrahydro-2H-pyran-3,4,5-triol]
